# Measured values from US7626031B2, “Substituted 3-(diarylmethylene)indolin-2-ones and methods of their use” (Symphony Evolution, Inc., priority 2002, dated 2009).
# How the values were obtained:
# [1] = biological target: T1, KDR (baculovirus expressed human KDR kinase domain D807-V1356) (Homo sapiens, UniProt P35968); assay: biochemical
# T1 construct: human KDR kinase domain D807-V1356; host or cells: baculovirus expression system
# Outline: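 Baculovirus human KDR kinase domain (D807–V1356) with ATP near its KM; 10-point dose-response, 4 h at ambient temperature. Activity taken as percent ATP remaining, detected by luciferase–luciferin chemiluminescence.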
# c-Kit kinase = c-Kit kinase (Homo sapiens, UniProt P10721); assay: c-Kit AlphaScreen kinase assay; type: biochemical
# Procedure: (§1) Kinase activity and compound inhibition are investigated using one or more assay formats. The ATP concentrations for each assay are selected to be close to the Michaelis-Menten constant (KM) for each individual kinase. Dose-response experiments are performed at 10 different inhibitor concentrations in a 384-well plate format. […] Exemplary kinase assays are described below. KDR Assay
# c-Kit biochemical activity was assessed using AlphaScreen™ (Perkin Elmer) technology, described above. Test compounds, ATP, biotinylated poly(Glu, Tyr) and c-Kit kinase were combined in a volume of 20 μL in a 384-well white, medium binding microtiter plate (Greiner). Reaction mixtures were incubated for 1 hr at ambient temperature. Reactions were quenched by addition of 10 uL of […] AlphaScreen bead suspension containing 75 mM Hepes, pH 7.4, 300 mM NaCl, 120 mM EDTA, 0.3% BSA and 0.03% Tween-20. After 16 hr incubation at ambient temperature plates were read using an AlphaQuest reader (Perkin Elmer).
# EphA2 = EphA2 (Homo sapiens, UniProt P29317); assay: Kinase assay, EphA2 (33P-ATP incorporation or luciferase-coupled ATP consumption); type: biochemical
# Outline: (§2)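 Two formats used: luciferase/luciferin chemiluminescence of ATP consumed with pEY, or radiometric 33P transfer to plate-bound MBP or pEY read by scintillation.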
# Flt-1 = Flt-1 (Homo sapiens, UniProt P17948); assay: Kinase assay, Flt-1 (33P-ATP incorporation or luciferase-coupled ATP consumption); type: biochemical; details: read-out: Flt1 IC50
# Outline: as §2
# EGFR = EGFR (Homo sapiens, UniProt P00533); assay: Kinase assay, EGFR (33P-ATP incorporation or luciferase-coupled ATP consumption); type: biochemical
# Outline: as §2
# FGFR1 = FGFR1 (Homo sapiens, UniProt P11362); assay: Kinase assay, FGFR1 (33P-ATP incorporation or luciferase-coupled ATP consumption); type: biochemical
# Outline: as §2
# PDGFR alpha = PDGFR alpha (Homo sapiens, UniProt P16234); assay: Kinase assay, PDGFR alpha (33P-ATP incorporation or luciferase-coupled ATP consumption); type: biochemical; details: read-out: PDGF-R-A IC50
# Outline: as §2
# Fyn = Fyn (Homo sapiens, UniProt P06241); assay: Kinase assay, Fyn; type: biochemical
# Procedure: as §1
# IRK = IRK (Homo sapiens, UniProt P06213); assay: Kinase assay, IRK; type: biochemical
# Procedure: as §1
# ALK = ALK (Homo sapiens, UniProt Q9UM73); assay: Kinase assay, ALK (33P-ATP incorporation or luciferase-coupled ATP consumption); type: biochemical
# Procedure: Kinase assays were performed by measurement of incorporation of γ-^33P ATP into immobilized myelin basic protein (MBP). […] Plates were washed 3× with 100 μl TBS. […] Compound dilutions were performed in DMSO and added to assay wells to a final DMSO concentration of 1%. Each data point was measured in duplicate, and at least two duplicate assays were performed for each individual compound determination. Enzyme was added to final concentrations of 10 nM or 20 nM, for example. A mixture of unlabeled ATP and γ-^33P ATP was added to start the reaction (2×10^6 cpm of γ-^33P ATP per well (3000 Ci/mmole) and either 10 μM or 30 μM unlabeled ATP, typically. The reactions were carried out for 1 hour at room temperature with shaking. Plates were washed 7× with TBS, followed by the addition of 50 μl/well scintillation fluid (Wallac). Plates were read using a Wallac Trilux counter. This is only one format of such assays, various other formats are possible, as known to one of ordinary skill in the art.
# Tyrosine kinase activity is determined by 1) measurement of kinase-dependent ATP consumption by in the presence of a generic substrate such as, polyglutamic acid, tyrosine, 4:1 (pEY), by luciferase/luciferin-mediated chemiluminescence or; 2) incorporation of radioactive phosphate derived from ^33P-ATP into a generic substrate which has been adsorbed onto the well surface of polystyrene microtiter plates. Phosphorylated substrate products are quantified by scintillation spectrometry.
# as §1
# Sequence of IRK (P06213 28-1382): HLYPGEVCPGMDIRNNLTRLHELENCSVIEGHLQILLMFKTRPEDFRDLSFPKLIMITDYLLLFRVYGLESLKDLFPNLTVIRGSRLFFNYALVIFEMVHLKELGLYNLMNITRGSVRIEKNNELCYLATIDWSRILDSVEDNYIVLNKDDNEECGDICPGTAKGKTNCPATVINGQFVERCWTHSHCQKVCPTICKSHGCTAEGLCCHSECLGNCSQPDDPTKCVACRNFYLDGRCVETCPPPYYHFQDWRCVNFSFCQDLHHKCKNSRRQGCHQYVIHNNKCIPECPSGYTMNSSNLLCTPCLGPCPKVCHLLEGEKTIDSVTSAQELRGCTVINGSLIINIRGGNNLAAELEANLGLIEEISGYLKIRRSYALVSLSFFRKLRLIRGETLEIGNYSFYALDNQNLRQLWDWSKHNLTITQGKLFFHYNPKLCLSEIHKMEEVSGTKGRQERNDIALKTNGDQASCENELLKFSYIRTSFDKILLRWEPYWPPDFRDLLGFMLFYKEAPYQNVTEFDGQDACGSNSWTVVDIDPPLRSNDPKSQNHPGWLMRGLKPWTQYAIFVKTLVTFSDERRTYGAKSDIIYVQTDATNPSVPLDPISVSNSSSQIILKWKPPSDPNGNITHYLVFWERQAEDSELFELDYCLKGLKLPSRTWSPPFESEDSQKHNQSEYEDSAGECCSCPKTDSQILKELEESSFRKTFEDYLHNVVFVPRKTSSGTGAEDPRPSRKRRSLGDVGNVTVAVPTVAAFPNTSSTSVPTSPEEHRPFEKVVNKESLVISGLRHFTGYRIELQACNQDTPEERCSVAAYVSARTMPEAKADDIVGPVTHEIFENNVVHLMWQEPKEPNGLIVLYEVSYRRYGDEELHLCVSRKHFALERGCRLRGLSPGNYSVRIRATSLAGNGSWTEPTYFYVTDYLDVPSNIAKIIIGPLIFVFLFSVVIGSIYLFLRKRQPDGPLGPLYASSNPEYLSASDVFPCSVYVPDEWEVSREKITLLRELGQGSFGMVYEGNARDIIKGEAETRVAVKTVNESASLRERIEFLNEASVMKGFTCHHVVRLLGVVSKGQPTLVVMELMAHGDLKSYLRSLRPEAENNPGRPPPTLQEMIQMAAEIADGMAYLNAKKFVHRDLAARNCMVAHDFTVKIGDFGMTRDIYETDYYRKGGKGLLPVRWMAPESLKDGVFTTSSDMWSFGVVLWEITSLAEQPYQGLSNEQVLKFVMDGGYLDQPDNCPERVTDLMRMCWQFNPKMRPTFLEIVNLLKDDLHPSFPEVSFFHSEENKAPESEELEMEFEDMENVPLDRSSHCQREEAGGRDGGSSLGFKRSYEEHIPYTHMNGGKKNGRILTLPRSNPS
# Sequence of c-Kit kinase (P10721 26-976): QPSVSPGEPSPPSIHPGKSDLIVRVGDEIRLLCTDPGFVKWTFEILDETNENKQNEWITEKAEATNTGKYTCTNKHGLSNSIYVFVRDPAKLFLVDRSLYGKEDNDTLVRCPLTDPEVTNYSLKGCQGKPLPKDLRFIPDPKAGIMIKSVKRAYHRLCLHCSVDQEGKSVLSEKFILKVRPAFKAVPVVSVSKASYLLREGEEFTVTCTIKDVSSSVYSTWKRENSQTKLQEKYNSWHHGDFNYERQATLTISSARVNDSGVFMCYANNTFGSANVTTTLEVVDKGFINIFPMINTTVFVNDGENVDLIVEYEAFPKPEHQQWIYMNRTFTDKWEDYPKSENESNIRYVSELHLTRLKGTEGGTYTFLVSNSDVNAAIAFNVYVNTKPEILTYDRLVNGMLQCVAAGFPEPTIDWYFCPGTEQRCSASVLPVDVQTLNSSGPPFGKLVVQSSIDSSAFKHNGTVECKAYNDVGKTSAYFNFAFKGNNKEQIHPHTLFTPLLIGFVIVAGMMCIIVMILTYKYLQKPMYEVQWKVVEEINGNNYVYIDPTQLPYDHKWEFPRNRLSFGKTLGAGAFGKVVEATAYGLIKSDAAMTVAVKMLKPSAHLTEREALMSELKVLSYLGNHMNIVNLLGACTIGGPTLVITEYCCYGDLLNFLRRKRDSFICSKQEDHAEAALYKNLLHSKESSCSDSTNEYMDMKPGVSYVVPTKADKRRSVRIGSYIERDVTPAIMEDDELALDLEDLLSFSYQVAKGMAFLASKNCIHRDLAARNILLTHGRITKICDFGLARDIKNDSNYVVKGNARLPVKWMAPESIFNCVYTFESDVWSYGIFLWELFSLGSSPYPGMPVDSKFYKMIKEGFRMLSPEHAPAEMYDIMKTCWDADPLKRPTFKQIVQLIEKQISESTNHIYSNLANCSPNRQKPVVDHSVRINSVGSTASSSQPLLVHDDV
# Sequence of ALK (Q9UM73 19-1620, species assumed): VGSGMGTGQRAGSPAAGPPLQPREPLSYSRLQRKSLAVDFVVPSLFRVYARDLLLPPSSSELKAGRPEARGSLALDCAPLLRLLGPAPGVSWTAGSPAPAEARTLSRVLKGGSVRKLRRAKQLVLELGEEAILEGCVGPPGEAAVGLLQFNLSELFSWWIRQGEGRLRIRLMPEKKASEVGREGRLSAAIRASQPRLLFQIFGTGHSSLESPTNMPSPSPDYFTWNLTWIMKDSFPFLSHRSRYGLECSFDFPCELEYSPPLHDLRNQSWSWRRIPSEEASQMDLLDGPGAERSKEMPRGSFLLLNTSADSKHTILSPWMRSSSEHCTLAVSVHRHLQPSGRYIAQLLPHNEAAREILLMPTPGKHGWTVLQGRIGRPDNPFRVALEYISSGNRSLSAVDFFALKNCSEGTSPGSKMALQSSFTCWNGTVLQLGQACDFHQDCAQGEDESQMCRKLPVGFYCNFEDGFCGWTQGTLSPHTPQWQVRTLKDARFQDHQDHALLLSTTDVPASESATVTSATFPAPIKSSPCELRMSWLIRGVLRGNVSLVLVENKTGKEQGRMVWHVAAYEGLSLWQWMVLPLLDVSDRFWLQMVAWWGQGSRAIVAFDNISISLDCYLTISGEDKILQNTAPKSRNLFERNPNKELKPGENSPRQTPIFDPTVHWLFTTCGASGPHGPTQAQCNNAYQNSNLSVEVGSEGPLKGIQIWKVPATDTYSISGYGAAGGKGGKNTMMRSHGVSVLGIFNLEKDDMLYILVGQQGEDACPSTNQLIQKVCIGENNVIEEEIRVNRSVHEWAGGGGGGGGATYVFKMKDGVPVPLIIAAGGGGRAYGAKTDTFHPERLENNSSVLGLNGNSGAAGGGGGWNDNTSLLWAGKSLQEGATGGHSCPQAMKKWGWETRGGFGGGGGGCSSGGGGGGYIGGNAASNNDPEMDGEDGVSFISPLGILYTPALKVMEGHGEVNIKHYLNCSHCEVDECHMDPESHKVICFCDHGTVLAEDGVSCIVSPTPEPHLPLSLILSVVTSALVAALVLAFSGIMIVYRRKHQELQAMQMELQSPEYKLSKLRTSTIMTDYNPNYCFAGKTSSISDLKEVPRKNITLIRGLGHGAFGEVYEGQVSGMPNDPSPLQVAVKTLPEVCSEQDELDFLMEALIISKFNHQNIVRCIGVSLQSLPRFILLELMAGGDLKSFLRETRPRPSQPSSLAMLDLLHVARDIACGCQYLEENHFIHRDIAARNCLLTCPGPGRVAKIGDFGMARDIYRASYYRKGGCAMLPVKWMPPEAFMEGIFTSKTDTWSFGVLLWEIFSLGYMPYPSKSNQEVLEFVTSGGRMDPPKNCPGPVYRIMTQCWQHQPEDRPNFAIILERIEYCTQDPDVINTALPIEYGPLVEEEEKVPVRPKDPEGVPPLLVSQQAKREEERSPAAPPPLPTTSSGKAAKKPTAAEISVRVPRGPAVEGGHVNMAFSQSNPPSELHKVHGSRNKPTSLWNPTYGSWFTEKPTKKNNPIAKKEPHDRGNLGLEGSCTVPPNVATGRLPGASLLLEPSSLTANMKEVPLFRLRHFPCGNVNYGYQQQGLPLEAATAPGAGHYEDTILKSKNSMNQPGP
# Sequence of Fyn (P06241 whole entry, species assumed): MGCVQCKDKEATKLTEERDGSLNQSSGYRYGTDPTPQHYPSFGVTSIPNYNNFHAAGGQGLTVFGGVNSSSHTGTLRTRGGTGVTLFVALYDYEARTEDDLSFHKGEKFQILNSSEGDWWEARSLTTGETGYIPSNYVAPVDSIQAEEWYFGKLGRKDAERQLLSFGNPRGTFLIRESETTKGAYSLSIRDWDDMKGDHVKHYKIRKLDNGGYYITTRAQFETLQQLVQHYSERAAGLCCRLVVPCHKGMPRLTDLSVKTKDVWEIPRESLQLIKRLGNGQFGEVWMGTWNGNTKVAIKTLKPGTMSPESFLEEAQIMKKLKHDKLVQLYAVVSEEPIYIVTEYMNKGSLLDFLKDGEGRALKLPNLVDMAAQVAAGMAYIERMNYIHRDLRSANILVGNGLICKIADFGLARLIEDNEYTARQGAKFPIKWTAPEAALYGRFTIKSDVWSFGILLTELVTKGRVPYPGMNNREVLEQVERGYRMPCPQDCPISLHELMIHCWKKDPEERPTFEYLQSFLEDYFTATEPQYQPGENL
# T1 sequence (P35968 807-1356): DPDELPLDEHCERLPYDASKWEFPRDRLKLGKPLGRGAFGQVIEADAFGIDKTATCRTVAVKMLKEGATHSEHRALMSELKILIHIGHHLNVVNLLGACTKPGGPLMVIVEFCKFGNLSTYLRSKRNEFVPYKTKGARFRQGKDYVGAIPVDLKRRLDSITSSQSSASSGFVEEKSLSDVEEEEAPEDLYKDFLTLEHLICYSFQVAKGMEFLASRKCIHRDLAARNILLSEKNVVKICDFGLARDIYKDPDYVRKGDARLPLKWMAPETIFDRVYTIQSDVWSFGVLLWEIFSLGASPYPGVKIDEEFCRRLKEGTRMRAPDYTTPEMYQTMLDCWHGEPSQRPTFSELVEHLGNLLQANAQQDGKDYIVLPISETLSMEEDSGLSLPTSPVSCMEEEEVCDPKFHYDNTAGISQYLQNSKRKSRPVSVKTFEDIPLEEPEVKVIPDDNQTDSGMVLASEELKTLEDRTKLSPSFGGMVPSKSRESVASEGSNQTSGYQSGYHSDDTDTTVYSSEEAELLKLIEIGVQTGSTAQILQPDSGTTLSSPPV
SMILES,IC50 [1] [nM],IC50 (c-Kit kinase) [nM],IC50 (EphA2) [nM],IC50 (Flt-1) [nM],IC50 (EGFR) [nM],IC50 (FGFR1) [nM],IC50 (PDGFR alpha) [nM],IC50 (Fyn) [nM],IC50 (IRK) [nM],IC50 (ALK) [nM]
"CCN1CCC(Nc2ccc3c(c2)/C(=C(\c2ccc(C)cc2)c2ncc[nH]2)C(=O)N3)CC1 [Entry 13, (3Z)-5-[(1-ethylpiperidin-4-yl)amino]-3-[1H-imidazol-2-yl(4-methylphenyl)methylidene]-1,3-dihydro-2H-indol-2-one]",< 50,50 to 500,50 to 500,50 to 500,50 to 500,< 50,< 50,< 50,500 to 5000,–
"CCN1CCC(Nc2ccc3c(c2)/C(=C(\c2ccc(C)c(F)c2)c2ncc[nH]2)C(=O)N3)CC1 [Entry 57, (3Z)-5-[(1-ethylpiperidin-4-yl)amino]-3-[(3-fluoro-4-methylphenyl)(1H-imidazol-2-yl)methylidene]-1,3-dihydro-2H-indol-2-one]",< 50,–,50 to 500,–,–,< 50,< 50,< 50,500 to 5000,50 to 500
"CCN1CCC(Nc2ccc3c(c2)/C(=C(\c2ccc(F)cc2)c2ncc[nH]2)C(=O)N3)CC1 [Entry 58, (3Z)-5-[(1-ethylpiperidin-4-yl)amino]-3-[(4-fluorophenyl)(1H-imidazol-2-yl)methylidene]-1,3-dihydro-2H-indol-2-one]",< 50,< 50,500 to 5000,–,500 to 5000,< 50,< 50,< 50,> 5000,50 to 500
"CCN1CCC(Nc2ccc3c(c2)/C(=C(/c2ncc[nH]2)c2cccc(F)c2F)C(=O)N3)CC1 [Entry 109, (3Z)-3-[(2,3-difluorophenyl)(1H-imidazol-2-yl)methylidene]-5-[(1-ethylpiperidin-4-yl)amino]-1,3-dihydro-2H-indol-2-one]",< 50,< 50,500 to 5000,–,50 to 500,< 50,< 50,< 50,500 to 5000,–
"CCN1CCC(Nc2ccc3c(c2)/C(=C(/c2nc(C)c[nH]2)c2cccc(F)c2F)C(=O)N3)CC1 [Entry 110, (3Z)-3-[(2,3-difluorophenyl)(4-methyl-1H-imidazol-2-yl)methylidene]-5-[(1-ethylpiperidin-4-yl)amino]-1,3-dihydro-2H-indol-2-one]",< 50,< 50,500 to 5000,–,50 to 500,< 50,< 50,< 50,500 to 5000,< 50
"CCN1CCC(Nc2ccc3c(c2)/C(=C(/c2ncc[nH]2)c2ccc(F)cc2F)C(=O)N3)CC1 [Entry 112, (3Z)-3-[(2,4-difluorophenyl)(1H-imidazol-2-yl)methylidene]-5-[(1-ethylpiperidin-4-yl)amino]-1,3-dihydro-2H-indol-2-one]",< 50,< 50,500 to 5000,–,50 to 500,< 50,< 50,< 50,500 to 5000,–
"CCN1CCC(Nc2ccc3c(c2)/C(=C(\c2cccc(C(F)(F)F)c2)c2nc(C)c[nH]2)C(=O)N3)CC1 [Entry 115, (3Z)-3-[(3-trifluoromethylphenyl)(4-methyl-1H-imidazol-2-yl)methylidene]-5-[(1-ethylpiperidin-4-yl)amino]-1,3-dihydro-2H-indol-2-one]",< 50,< 50,500 to 5000,–,500 to 5000,50 to 500,< 50,50 to 500,500 to 5000,–

# The remaining lines, values ahead:
IC50 [1] [nM],IC50 (c-Kit kinase) [nM],IC50 (EphA2) [nM],IC50 (Flt-1) [nM],IC50 (EGFR) [nM],IC50 (FGFR1) [nM],IC50 (PDGFR alpha) [nM],IC50 (Fyn) [nM],IC50 (IRK) [nM],IC50 (ALK) [nM],SMILES
< 50,50 to 500,500 to 5000,50 to 500,50 to 500,< 50,< 50,< 50,500 to 5000,–,"COCCN1CCC(Nc2ccc3c(c2)/C(=C(\c2cccc(F)c2)c2ncc[nH]2)C(=O)N3)CC1 [Entry 41, (3Z)-3-[(3-fluorophenyl)(1H-imidazol-2-yl)methylidene]-5-({1-[2-(methyloxy)ethyl]piperidin-4-yl}amino)-1,3-dihydro-2H-indol-2-one]"
< 50,–,50 to 500,–,50 to 500,< 50,< 50,< 50,500 to 5000,< 50,"CCN1CCC(Nc2ccc3c(c2)/C(=C(\c2ccc(C)cc2)c2nc(C)c[nH]2)C(=O)N3)CC1 [Entry 64, (3Z)-5-[(1-ethylpiperidin-4-yl)amino]-3-[(4-methyl-1H-imidazol-2-yl)(4-methylphenyl)methylidene] 1,3-dihydro-2H-indol-2-one]"
< 50,–,50 to 500,–,< 50,< 50,< 50,< 50,500 to 5000,< 50,"CCN1CCC(Nc2ccc3c(c2)/C(=C(\c2ccc(C)c(F)c2)c2nc(C)c[nH]2)C(=O)N3)CC1 [Entry 67, (3Z)-5-[(1-ethylpiperidin-4-yl)amino]-3-[(3-fluoro-4-methylphenyl) (4-methyl-1H-imidazol-2-yl)methylidene]-1,3-dihydro-2H-indol-2-one]"
< 50,–,500 to 5000,–,< 50,< 50,–,< 50,500 to 5000,< 50,COCCN1CCC(Nc2ccc3c(c2)/C(=C(\c2ccc(C)c(F)c2)c2nc(C)c[nH]2)C(=O)N3)CC1 [Entry 97]
< 50,< 50,500 to 5000,–,50 to 500,< 50,< 50,< 50,500 to 5000,< 50,CCN1CCC(Nc2ccc3c(c2)/C(=C(\c2ccc(Cl)cc2)c2nc(C)c[nH]2)C(=O)N3)CC1 [Entry 102]
< 50,< 50,500 to 5000,–,50 to 500,< 50,< 50,< 50,500 to 5000,–,"CCN1CCC(Nc2ccc3c(c2)/C(=C(/c2nc(C)c[nH]2)c2ccc(C(F)(F)F)cc2F)C(=O)N3)CC1 [Entry 108, (3Z)-5-[(1-ethylpiperidin-4-yl)amino]-3-[[2-fluoro-4-(trifluoromethyl)phenyl] (4-methyl-1H-imidazol-2-yl)methylidene]-1,3-dihydro-2H-indol-2-one]"
< 50,50 to 500,500 to 5000,–,500 to 5000,50 to 500,< 50,50 to 500,> 5000,–,"CCN1CCC(Nc2ccc3c(c2)/C(=C(\c2cccc(C(F)(F)F)c2)c2ncc[nH]2)C(=O)N3)CC1 [Entry 114, (3Z)-3-[(3-trifluoromethylphenyl)(1H-imidazol-2-yl)methylidene]-5-[(1-ethylpiperidin-4-yl)amino]-1,3-dihydro-2H-indol-2-one]"
< 50,< 50,500 to 5000,–,< 50,< 50,–,< 50,50 to 500,< 50,"CCN1CCC(Nc2ccc3c(c2)/C(=C(/c2nc(C)c[nH]2)c2ccc(Cl)cc2F)C(=O)N3)CC1 [Entry 118, (3Z)-3-[(4-chloro-2-fluorophenyl)(4-methyl-1H-imidazol-2-yl)methylidene]-5-[(1-ethylpiperidin-4-yl)amino]-1,3-dihydro-2H-indol-2-one]"
